We go through four compounds from patent US7759369B2, “Pyridine compounds for the treatment of prostaglandin mediated diseases” (Glaxo Group Limited, priority 2004, dated 2010).

Some results are limits rather than exact numbers.

Assay [1] has as its target T1, EP1 receptors (Homo sapiens, UniProt P34995).
T1 sequence (P34995 1-402): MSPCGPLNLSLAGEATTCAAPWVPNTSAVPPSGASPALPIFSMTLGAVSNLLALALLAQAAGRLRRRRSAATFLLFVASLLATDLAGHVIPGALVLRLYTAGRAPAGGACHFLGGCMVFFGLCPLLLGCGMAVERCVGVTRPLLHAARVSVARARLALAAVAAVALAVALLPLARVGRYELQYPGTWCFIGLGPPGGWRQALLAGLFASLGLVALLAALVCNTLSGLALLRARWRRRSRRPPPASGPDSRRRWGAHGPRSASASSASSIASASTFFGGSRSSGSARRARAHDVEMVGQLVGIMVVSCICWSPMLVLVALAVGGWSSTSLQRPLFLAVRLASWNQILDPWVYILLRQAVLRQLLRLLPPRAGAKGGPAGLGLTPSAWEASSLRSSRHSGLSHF
The experiment in a line: human EP1 calcium mobilisation assay (CHO-K1 cells, PGE2, FLIPR). It counts as cell-based. Also on record: expressed in transfected cells; host or cells: CHO-K1. As to conditions: free bases or sodium salts; averages of a number of experiments; read-out: functional pKi value, human EP1 calcium mobilisation assay (converted). As for the experimental part:
(§1) Briefly, the antagonist properties of compounds are assessed by their ability to inhibit the mobilisation of intracellular calcium ([Ca^2+]i) in response to activation of EP1 or EP3 receptors by the natural agonist hormone prostaglandin E2 (PGE2). Increasing concentrations of antagonist reduce the amount of calcium that a given concentration of PGE2 can mobilise. The net effect is to displace the PGE2 concentration-effect curve to higher concentrations of PGE2. The amount of calcium produced is assessed using a calcium-sensitive fluorescent dye such as Fluo-4, AM and a suitable instrument such as a Fluorimetric Imaging Plate Reader (FLIPR). Increasing amounts of [Ca^2+]i produced by receptor activation increase the amount of fluorescence produced by the dye and give rise to an increasing signal. The signal may be detected using the FLIPR instrument and the data generated may be analysed with suitable curve-fitting software.
(§2) The human EP1 or EP3 calcium mobilisation assay (hereafter referred to as ‘the calcium assay’) utilises Chinese hamster ovary-K1 (CHO-K1) cells into which a stable (pCIN; BioTechniques 20 (1996): 102-110) vector containing either EP1 or EP3 cDNA has previously been transfected. Cells are cultured in suitable flasks containing culture medium such as DMEM:F-12 supplemented with 10% v/v foetal calf serum, 2 mM L-glutamine, 0.25 mg/ml geneticin, 100 μM flurbiprofen and 10 µg/ml puromycin.
(§3) For assay, cells are harvested using a proprietary reagent that dislodges cells such as Versene. Cells are re-suspended in a suitable quantity of fresh culture media for introduction into a 384-well plate. Following incubation for 24 hours at 37° C. the culture media is replaced with a medium containing Fluo-4 and the detergent pluronic acid, and a further incubation takes place. Concentrations of compounds are then added to the plate in order to construct concentration-effect curves. This may be performed on the FLIPR in order to assess the agonist properties of the compounds. Concentrations of PGE2 are then added to the plate in order to assess the antagonist properties of the compounds.
(§4) The data so generated may be analysed by means of a computerised curve-fitting routine. The concentration of compound that elicits a half-maximal inhibition of the calcium mobilisation induced by PGE2 (pIC50) may then be estimated.
(Calcium flux is commonly read through the fluorescence of an indicator in the cells.)

Another assay addresses T2, EP3 receptors (Homo sapiens, UniProt P43115).
T2 construct: expressed in transfected cells; host or cells: CHO-K1
T2 sequence (P43115 1-390): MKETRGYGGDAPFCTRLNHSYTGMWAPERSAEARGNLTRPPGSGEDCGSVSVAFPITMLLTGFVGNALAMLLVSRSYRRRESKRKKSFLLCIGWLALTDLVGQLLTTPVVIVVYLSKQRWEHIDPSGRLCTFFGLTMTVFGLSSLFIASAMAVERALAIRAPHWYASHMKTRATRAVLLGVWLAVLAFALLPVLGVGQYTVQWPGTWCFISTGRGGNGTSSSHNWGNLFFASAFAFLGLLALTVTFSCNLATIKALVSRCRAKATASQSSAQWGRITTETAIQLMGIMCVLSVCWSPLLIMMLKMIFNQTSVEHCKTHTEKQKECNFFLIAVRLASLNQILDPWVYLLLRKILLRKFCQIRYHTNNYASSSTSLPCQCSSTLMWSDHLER
The experiment in a line: human EP3 calcium mobilisation assay (CHO-K1 cells, PGE2, FLIPR). The conditions noted are these: free bases or sodium salts; averages of a number of experiments; read-out: functional pKi value, human EP3 calcium mobilisation assay (converted). It counts as cell-based. As for the experimental part: as §1, §2, §3, §4

A further assay has as its target T3, TP receptor (Homo sapiens, UniProt P21731).
T3 construct: expressed in transfected cells; host or cells: CHO-K1
T3 sequence (P21731 1-343): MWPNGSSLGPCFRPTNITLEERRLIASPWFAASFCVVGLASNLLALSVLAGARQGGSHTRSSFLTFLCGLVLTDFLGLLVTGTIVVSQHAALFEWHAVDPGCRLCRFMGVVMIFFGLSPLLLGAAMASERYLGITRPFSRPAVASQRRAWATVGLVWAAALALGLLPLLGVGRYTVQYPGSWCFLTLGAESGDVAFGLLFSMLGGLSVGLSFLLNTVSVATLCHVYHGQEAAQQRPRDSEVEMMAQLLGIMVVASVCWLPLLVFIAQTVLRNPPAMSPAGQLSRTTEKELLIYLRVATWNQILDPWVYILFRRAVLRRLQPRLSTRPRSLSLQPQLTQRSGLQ
The experiment in a line: human TP calcium mobilisation assay (CHO-K1 cells, U46619, FLIPR). As to conditions: free bases or sodium salts; read-out: functional pKi, human TP calcium mobilisation assay (converted). In kind it is cell-based. On the procedure:
as §1, with “To determine if a compound has agonist or antagonist activity at the TP receptor a functional calcium mobilisation assay may be performed. Briefly,” for “Briefly,”, “TP” for “EP1 or EP3”, “stable TXA2 mimetic U46619 (9,11-dideoxy-11α,9α-epoxy-methanoprostaglandin F2 α; commercially available from e.g Sigma-Aldrich).” for “natural agonist hormone prostaglandin E2 (PGE2).”, “U46619” for “PGE2”, “curve.” for “curve to higher concentrations of PGE2.”, “software. The agonist activity of the compounds are determined by their ability to cause an increase in intracellular mobilisation in the absence of U46619.” for “software.”
The human TP calcium mobilisation assay utilises Chinese hamster ovary-K1 (CHO-K1) cells into which a stable (pCIN; BioTechniques 20 (1996): 102-110) vector containing TP cDNA has previously been transfected. Cells are cultured in suitable flasks containing culture medium such as DMEM:F-12 supplemented with 10% v/v foetal calf serum, 2 mM L-glutamine, 0.25 mg/ml geneticin, 100 μM flurbiprofen and 10 μg/ml puromycin.
as §3, with “96-well” for “384-well”, “U46619” for “PGE2”
The data so generated may be analysed by means of a computerised curve-fitting routine. The concentration of compound that elicits a half-maximal inhibition of the calcium mobilisation induced by U46619 (plC50) may then be estimated, and the percentage activation caused by the compounds directly can be used to determine if there is any agonism present.

Assay [2] deals with T1, EP1 receptors. The experiment in a line: Binding assay for the human prostanoid EP1 receptor (competition with [3H]-PGE2). As to conditions: averages of a number of experiments; Example 3 as sodium salt; read-out: pIC50 value in the binding assay for the human prostanoid EP1 receptor (converted). Also on record: expressed in transfected cells; host or cells: CHO-K1 (membrane fraction). On the procedure: Binding Assay for the Human Prostanoid EP1 Receptor
Competition assay using [^3H]-PGE2.
Compound potencies are determined using a radioligand binding assay. In this assay compound potencies are determined from their ability to compete with tritiated prostaglandin E2 ([^3H]-PGE2) for binding to the human EP1 receptor.
This assay utilises Chinese hamster ovary-K1 (CHO-K1) cells into which a stable vector containing the EP1 cDNA has previously been transfected. Cells are cultured in suitable flasks containing culture medium such as DMEM:F-12 supplemented with 10% v/v foetal calf serum, 2 mM L-glutamine, 0.25 mg/ml geneticin, 10 μg/ml puromycin and 10 μM indomethacin.
Cells are detached from the culture flasks by incubation in calcium and magnesium free phosphate buffered saline containing 1 mM disodium ethylenediaminetetraacetic acid (Na2EDTA) and 10 μM indomethacin for 5 min. The cells are isolated by centrifugation at 250×g for 5 mins and suspended in an ice cold buffer such as 50 mM Tris, 1 mM Na2EDTA, 140 mM NaCl, 10 μM indomethacin (pH 7.4). The cells are homogenised using a Polytron tissue disrupter (2×10s burst at full setting), centrifuged at 48,000×g for 20 mins and the pellet containing the membrane fraction is washed (optional) three times by suspension and centrifugation at 48,000×g for 20 mins. The final membrane pellet is suspended in an assay buffer such as 10 mM 2-[N-morpholino]ethanesulphonic acid, 1 mM Na2EDTA, 10 mM MgCl2 (pH 6). Aliquots are frozen at −80° C. until required.
For the binding assay the cell membranes, competing compounds and [^3H]-PGE2 (3 nM final assay concentration) are incubated in a final volume of 100 μl for 30 min at 30° C. All reagents are prepared in assay buffer. Reactions are terminated by rapid vacuum filtration over GF/B filters using a Brandell cell harvester. The filters are washed with ice cold assay buffer, dried and the radioactivity retained on the filters is measured by liquid scintillation counting in Packard TopCount scintillation counter.
The data are analysed using non linear curve fitting techniques to determine the concentration of compound producing 50% inhibition of specific binding (IC50).

On to `O=C(O)c1cccc(Cc2cc(Cl)ccc2OCc2ccccc2F)n1` [Example 8, Sodium 6-[(5-chloro-2-{[(2-fluorophenyl)methyl]oxy}phenyl)methyl]-2-pyridinecarboxylate], for which the Ki on EP1 receptors [1] is below 1000 nM; on EP3 receptors, above 10000 nM; at TP receptor, below 1000 nM.

As to `O=C(O)c1cncc(Cc2cc(Cl)ccc2OCc2c(F)cccc2F)c1` [Example 27, Sodium 5-[(5-chloro-2-{[(2,6-difluorophenyl)methyl]oxy}phenyl)methyl]-3-pyridinecarboxylate], the IC50 at EP1 receptors [2] was above 1000 nM.

As for `CC(C)(C)Oc1ccc(Cl)cc1Cc1cccc(C(=O)O)n1` [Example 41, 6-({5-Chloro-2-[(1,1-dimethylethyl)oxy]phenyl}methyl)-2-pyridinecarboxylic acid], the IC50 at EP1 receptors [2] was above 1000 nM. At EP1 receptors [1], the Ki is above 1000 nM.

In the case of `O=C(O)c1cccc(Cc2cc(Cl)ccc2OCc2ccc(Cl)cc2)n1` [Example 9, Sodium 6-[(5-chloro-2-{[(4-chlororophenyl)methyl]oxy}phenyl)methyl]-2-pyridinecarboxylate], the Ki at EP1 receptors [1] was below 1000 nM; at EP3 receptors it was above 10000 nM; at TP receptor, below 1000 nM.
